Test results taken from patent US10294202B2, “Pyrrolidinones as herbicides” (FMC Corporation, priority 2013, dated 2019).
Like-named read-outs stand apart in the source and are kept apart here.

Experiments:
rice = assay: Test C flooded paddy test; assay type: in vivo, Oryza sativa; details: Flood, scale of 0 to 100 where 0 is no effect and 100 is complete control, 13 to 15 days
In short: (§1)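 Plants at the 2-leaf stage in pots flooded to 3 cm were treated by applying compound directly to the paddy water, with depth held throughout. After 13 to 15 days in a greenhouse, response was rated visually against controls on a 0 (no effect) to 100 (complete control) scale.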

barnyardgrass = assay: Test C flooded paddy test; assay type: in vivo, Echinochloa crus-galli; details: Flood, scale of 0 to 100 where 0 is no effect and 100 is complete control, 13 to 15 days
In short: as §1

ragweed = assay: Test A pre-/postemergence herbicide test; assay type: in vivo, Ambrosia elatior
In short: (§2)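 Greenhouse pot test with pre- and postemergence application of surfactant-containing solvent formulations. Postemergence plants were 2–10 cm, one- to two-leaf stage. Response scored visually after ~10 days, 0 (no effect) to 100 (complete control).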

galium = assay: Test A postemergence herbicide test; assay type: in vivo, Galium aparine
In short: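 Injury was rated visually about 10 days after treatment on a 0 (no effect) to 100 (complete control) scale, compared with untreated plants. Test chemicals were sprayed postemergence onto greenhouse plants 2–10 cm high at one to two leaves, grown in a loam–sand blend.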

ducksalad = assay: Test C flooded paddy test; assay type: in vivo, Heteranthera limosa; details: Flood, scale of 0 to 100 where 0 is no effect and 100 is complete control, 13 to 15 days
In short: as §1

ryegrass, Italian = assay: Test A pre-/postemergence herbicide test; assay type: in vivo, Lolium multiflorum
In short: as §2

sedge, umbrella = assay: Test C flooded paddy test; assay type: in vivo, Cyperus difformis; details: Flood, scale of 0 to 100 where 0 is no effect and 100 is complete control, 13 to 15 days
In short: as §1

velvetleaf = assay: Test A pre-/postemergence herbicide test; assay type: in vivo, Abutilon theophrasti; details: for pest or weed control at 500 g/ha: 500 g ai/ha
In short: as §2

morningglory = assay: Test A pre-/postemergence herbicide test; assay type: in vivo, Ipomoea spp.; details: for pest or weed control at 500 g/ha: 500 g ai/ha
In short: as §2

chickweed = assay: Test C postemergence herbicide test; assay type: in vivo, Stellaria media
Text: At the same time, plants selected from these crop and weed species and also barley (winter barley, Hordeum vulgare), […]), chickweed (common chickweed, Stellaria media), deadnettle (henbit deadnettle, Lamium amplexicaule), and canarygrass (littleseed canarygrass, Phalaris minor) were planted in pots containing Redi-Earth® planting medium (Scotts Company, 14111 Scottslawn Road, Marysville, Ohio 43041) comprising spaghnum peat moss, vermiculite, wetting agent and starter nutrients and treated with postemergence applications of test chemicals formulated in the same manner. Plants ranged in height from 2 to 18 cm (1- to 4-leaf stage) for postemergence treatments. Treated plants and controls were maintained in a greenhouse for 13 to 15 days, after which time all species were compared to controls and visually evaluated. Plant response ratings, summarized in Table C, are based on a scale of 0 to 100 where 0 is no effect and 100 is complete control. A dash (-) response means no test result.

crabgrass, large = assay: Test A pre-/postemergence herbicide test; assay type: in vivo, Digitaria sanguinalis; details: for pest or weed control at 500 g/ha: 500 g ai/ha
In short: as §2

[1] = Postemergence, 125 g ai/ha, visual rating on 0 to 100 scale (0 no effect, 100 complete control), approx. 10 days
[2] = Postemergence, 500 g ai/ha, 0 to 100 scale (0 no effect, 100 complete control)
[3] = Preemergence, 125 g ai/ha, 0 to 100 scale where 0 is no effect and 100 is complete control
[4] = 125 g ai/ha, visual rating on 0 to 100 scale (0 no effect, 100 complete control), approx. 10 days
[5] = 500 g ai/ha, 0 to 100 scale (0 no effect, 100 complete control)
[6] = Preemergence, 500 g ai/ha, visual rating on 0 to 100 scale (0 no effect, 100 complete control)
[7] = Preemergence, 125 g ai/ha, visual rating on 0 to 100 scale (0 no effect, 100 complete control)

SMILES	Plant response rating, Rice (rice; 31 g ai/ha)	Plant response rating, Rice (rice; 62 g ai/ha)	Plant response rating, Rice (rice; 125 g ai/ha)	Plant response rating, Rice (rice; 250 g ai/ha)	Plant response rating, Barnyardgrass (barnyardgrass; 31 g ai/ha)	Plant response rating, Barnyardgrass (barnyardgrass; 62 g ai/ha)	Plant response rating, Barnyardgrass (barnyardgrass; 125 g ai/ha)	Plant response rating, Barnyardgrass (barnyardgrass; 250 g ai/ha)	Plant response rating, Ragweed (ragweed; [1])	Plant response rating, Ragweed (ragweed; [2])	Plant response rating, Ragweed (ragweed; [3])	Plant response rating, Galium (galium; [4])	Plant response rating, Galium (galium; [5])	Plant response rating, Ducksalad (ducksalad; 31 g ai/ha)	Plant response rating, Ducksalad (ducksalad; 62 g ai/ha)	Plant response rating, Ducksalad (ducksalad; 125 g ai/ha)	Plant response rating, Ducksalad (ducksalad; 250 g ai/ha)	Plant response rating, Ryegrass, Italian (ryegrass, Italian; [1])	Plant response rating, Ryegrass, Italian (ryegrass, Italian; [2])	Plant response rating, Ryegrass, Italian (ryegrass, Italian; [3])	other results
CN1CC(c2ccc(F)c(F)c2)C(C(=O)Nc2cccc(F)c2F)C1=O (stereo not shown) [Compound 303]	0	0	0	0	0	20	60	70	20	40	0	60	70	50	60	70	100	40	60	30	Ryegrass, Italian plant response rating (ryegrass, Italian; [6]): 40; Plant response rating, Sedge, Umbrella (sedge, umbrella; 31 g ai/ha): 0; Plant response rating, Sedge, Umbrella (sedge, umbrella; 62 g ai/ha): 0; Plant response rating, Sedge, Umbrella (sedge, umbrella; 125 g ai/ha): 0; Plant response rating, Sedge, Umbrella (sedge, umbrella; 250 g ai/ha): 0
O=C1NCC(c2ccc(C(F)(F)F)cc2)C1C(=O)Nc1ccccc1F (stereo not shown) [Compound 79, N-(2-fluorophenyl)-2-oxo-4-[4-(trifluoromethyl)phenyl]-3-pyrrolidinecarboxamide]	–	–	–	–	–	–	–	–	–	–	–	–	–	–	–	–	–	–	–	–	pest or weed control at 125 g/ha (velvetleaf; Abutilon theophrasti, post-emergence, 240 h, Postemergence, 125 g ai/ha, 0 to 100 scale, 0 no effect, 100 complete control, read-out: Plant response rating, Velvetleaf): 10%; pest or weed control at 500 g/ha (velvetleaf; Abutilon theophrasti, post-emergence, 240 h, Postemergence, 0 to 100 scale (0 no effect, 100 complete control), read-out: Plant response rating, Velvetleaf): 60%; pest or weed control at 500 g/ha (velvetleaf; Abutilon theophrasti, pre-emergence, 240 h, preemergence, 0 to 100 scale, read-out: Plant response rating, Velvetleaf): 30%; Velvetleaf plant response rating (velvetleaf; [7]): 0; pest or weed control at 125 g/ha (morningglory; Ipomoea, post-emergence, 240 h, Postemergence, 125 g ai/ha, 0 to 100 scale, 0 no effect, 100 complete control, read-out: Plant response rating, Morningglory): 0%; pest or weed control at 500 g/ha (morningglory; Ipomoea, post-emergence, 240 h, Postemergence, 0 to 100 scale (0 no effect, 100 complete control), read-out: Plant response rating, Morningglory): 10%; pest or weed control at 500 g/ha (morningglory; Ipomoea, pre-emergence, 240 h, preemergence, 0 to 100 scale, read-out: Plant response rating, Morningglory): 0%; Morningglory plant response rating (morningglory; [7]): 0; Plant response rating, Chickweed (chickweed; 31 g ai/ha, scale 0 (no effect) to 100 (complete control)): 60; Plant response rating, Chickweed (chickweed; 62 g ai/ha, scale 0 to 100 (0 no effect, 100 complete control)): 80; Plant response rating, Chickweed (chickweed; 125 g ai/ha, scale 0 to 100 (0 no effect, 100 complete control)): 90; Plant response rating, Chickweed (chickweed; 250 g ai/ha, scale 0 to 100 (0 no effect, 100 complete control)): 90; pest or weed control at 125 g/ha (crabgrass, large; Digitaria sanguinalis, post-emergence, 240 h, Postemergence, 125 g ai/ha, 0 to 100 scale, 0 no effect, 100 complete control, read-out: Plant response rating, Crabgrass, Large): 80%; pest or weed control at 500 g/ha (crabgrass, large; Digitaria sanguinalis, post-emergence, 240 h, Postemergence, 0 to 100 scale (0 no effect, 100 complete control), read-out: Plant response rating, Crabgrass, Large): 90%; pest or weed control at 500 g/ha (crabgrass, large; Digitaria sanguinalis, pre-emergence, 240 h, preemergence, 0 to 100 scale, read-out: Plant response rating, Crabgrass, Large): 90%; Crabgrass, Large plant response rating (crabgrass, large; [7]): 90
O=C1NCC(c2cccc(OC(F)F)c2)C1C(=O)Nc1ccccc1F (stereo not shown) [Compound 323]	0	0	0	30	25	45	50	65	0	20	20	40	60	50	75	90	100	30	30	20	Ragweed plant response rating (ragweed; [6]): 80; Ryegrass, Italian plant response rating (ryegrass, Italian; [6]): 30; Plant response rating, Sedge, Umbrella (sedge, umbrella; 31 g ai/ha): 0; Plant response rating, Sedge, Umbrella (sedge, umbrella; 62 g ai/ha): 0; Plant response rating, Sedge, Umbrella (sedge, umbrella; 125 g ai/ha): 0; Plant response rating, Sedge, Umbrella (sedge, umbrella; 250 g ai/ha): 0
